Results from patent publication US10689398B2, “OXA-Diazaspiro compounds having activity against pain” (ESTEVE PHARMACEUTICALS, S.A., priority 2015, dated 2020).

Target: human σ1 receptor (Homo sapiens (Human), UniProt Q99720)
Experiment: Human σ1 receptor radioligand assay
Type: binding
Conditions: transfected HEK-293 membranes, [3H](+)-pentazocine radioligand
Procedure: Human σ1 Receptor Radioligand Assay
To investigate binding properties of test compounds to human σ1 receptor, transfected HEK-293 membranes and [^3H](+)-pentazocine (Perkin Elmer, NET-1056), as the radioligand, were used. The assay was carried out with 7 μg of membrane suspension, 5 nM of [^3H](+)-pentazocine in either absence or presence of either buffer or 10 μM Haloperidol for total and non-specific binding, respectively. Binding buffer contained Tris-HCl 50 mM at pH 8. Plates were incubated at 37° C. for 120 minutes. After the incubation period, the reaction mix was then transferred to MultiScreen HTS, FC plates (Millipore), filtered and plates were washed 3 times with ice-cold 10 mM Tris-HCL (pH7.4). Filters were dried and counted at approximately 40% efficiency in a MicroBeta scintillation counter (Perkin-Elmer) using EcoScint liquid scintillation cocktail

human σ1 receptor, sequence (Q99720 whole entry): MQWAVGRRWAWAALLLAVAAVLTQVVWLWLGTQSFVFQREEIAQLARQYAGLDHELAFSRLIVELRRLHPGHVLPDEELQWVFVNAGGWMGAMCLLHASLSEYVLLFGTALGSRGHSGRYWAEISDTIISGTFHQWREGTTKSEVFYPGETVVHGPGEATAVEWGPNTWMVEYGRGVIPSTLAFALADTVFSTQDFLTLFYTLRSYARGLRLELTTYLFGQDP

Structure (SMILES)	Ki [nM]
O=C1N(c2ccccc2)CC2(CCCN(Cc3ccccc3)CC2)OC12CC2 (stereo not shown) [Example 14, 8-benzyl-13-phenyl-4-oxa-8,13-diazadispiro[2.1.6.3]tetradecan-14-one]	< 100
CCN1CC(C)(C)OC2(CCCN(Cc3ccccc3)CC2)C1 (stereo not shown) [Example 86, 9-benzyl-4-ethyl-2,2-dimethyl-1-oxa-4,9-diazaspiro[5.6]dodecane]	< 100
O=C(c1ccccc1)N1CC2(CCCN(Cc3ccccc3)CC2)OC2(CC2)C1 (stereo not shown) [Example 56, (8-benzyl-4-oxa-8,13-diazadispiro[2.1.6.3]tetradecan-13-yl)(phenyl)methanone]	< 100
CCN1CC2(CCCN(CCc3ccccc3)CC2)OC(C)(C)C1=O (stereo not shown) [Example 30, 4-ethyl-2,2-dimethyl-9-phenethyl-1-oxa-4,9-diazaspiro[5.6]dodecan-3-one]	< 100
CCN1C[C@]2(CCCN(Cc3ccc(F)cc3)CC2)O[C@@H](C)C1=O [Example 66, (2S,6R)-4-ethyl-9-(4-fluorobenzyl)-2-methyl-1-oxa-4,9-diazaspiro[5.6]dodecan-3-one]	≥ 500
CCN1C[C@]2(CCCN(CCC(C)C)CC2)O[C@@H](C)C1=O [Example 49, (2S,6R)-4-ethyl-9-isopentyl-2-methyl-1-oxa-4,9-diazaspiro[5.6]dodecan-3-one]	≥ 500
CN1CC2(CCCN(Cc3ccc(F)cc3)CC2)OC2(CC2)C1=O (stereo not shown) [Example 72, 8-(4-fluorobenzyl)-13-methyl-4-oxa-8,13-diazadispiro[2.1.6.3]tetradecan-14-one]	≥ 500
CCN1C[C@]2(CCCN(Cc3ccc(F)cc3)CC2)O[C@H](C)C1=O [Example 64, (2R,6R)-4-ethyl-9-(4-fluorobenzyl)-2-methyl-1-oxa-4,9-diazaspiro[5.6]dodecan-3-one]	≥ 500
CCN1CC2(CCCN(Cc3ccccc3)CC2)OC2(CC2)C1=O (stereo not shown) [Example 12, 8-benzyl-13-ethyl-4-oxa-8,13-diazadispiro[2.1.6.3]tetradecan-14-one]	< 100
CCN1C[C@@]2(CCCN(Cc3ccccc3)CC2)OC2(CC2)C1=O [Example 93, (S)-8-benzyl-13-ethyl-4-oxa-8,13-diazadispiro[2.1.6.3]tetradecan-14-one]	< 100
CCN1CC(C)(C)OC2(CCCN(CC(C)C)CC2)C1 (stereo not shown) [Example 89, 4-ethyl-9-isobutyl-2,2-dimethyl-1-oxa-4,9-diazaspiro[5.6]dodecane]	< 100
CCN1C[C@]2(CCCN(Cc3ccccc3)CC2)OC2(CC2)C1=O [Example 92, (R)-8-benzyl-13-ethyl-4-oxa-8,13-diazadispiro[2.1.6.3]tetradecan-14-one]	< 100
CCN1CC2(CCCN(CCc3ccccc3)CC2)OC2(CC2)C1 (stereo not shown) [Example 16, 13-Ethyl-8-phenethyl-4-oxa-8,13-diazadispiro[2.1.6.3]tetradecane]	< 100
CN1CC2(CCCN(Cc3ccccc3)CC2)OC2(CC2)C1=O (stereo not shown) [Example 71, 8-benzyl-13-methyl-4-oxa-8,13-diazadispiro[2.1.6.3]tetradecan-14-one]	≥ 500
CCN1C[C@]2(CCCN(CCC(C)C)CC2)O[C@H](C)C1=O [Example 47, (2R,6R)-4-ethyl-9-isopentyl-2-methyl-1-oxa-4,9-diazaspiro[5.6]dodecan-3-one]	≥ 500
CCN1CC2(CC2)OC2(CCCN(CCc3ccccc3)C2)C1 (stereo not shown) [Example 18]	≥ 500
c1ccc(CN2CCCC3(C2)CN(Cc2ccccc2)CC2(CC2)O3)cc1 (stereo not shown) [Example 78, 7,12-dibenzyl-4-oxa-7,12-diazadispiro[2.1.5.3]tridecane]	< 100
CCN1CC2(CN(CCc3ccccc3)C2)OC2(CC2)C1=O [Example 5]	< 500
CCN1CC2(CCCN(Cc3ccccc3)C2)OC2(CC2)C1=O (stereo not shown) [Example 11, 7-Benzyl-12-ethyl-4-oxa-7,12-diazadispiro[2.1.5.3]tridecan-13-one]	≥ 500
O=C(c1ccccc1)N1CC2(CC2)OC2(CN(CCc3ccccc3)C2)C1 [Example 91, (7-Phenethyl-4-oxa-7,10-diazadispiro[2.1.3.3]undecan-10-yl)(phenyl)methanone]	≥ 500

Structure (SMILES)	Ki [nM]
CC(C)CCN1CCCC2(CC1)CN(C(=O)c1ccccc1)CC1(CC1)O2 (stereo not shown) [Example 28, (8-isopentyl-4-oxa-8,13-diazadispiro[2.1.6.3]tetradecan-13-yl)(phenyl)methanone]	< 100
CCN1C[C@@]2(CCCN(Cc3ccc(F)cc3)CC2)O[C@H](C)C1=O [Example 63, (2R,6S)-4-ethyl-9-(4-fluorobenzyl)-2-methyl-1-oxa-4,9-diazaspiro[5.6]dodecan-3-one]	≥ 500
CCN1CC2(CN(CC(C)C)C2)O[C@@H](C)C1=O [Example 39, (S)-8-ethyl-2-isobutyl-6-methyl-5-oxa-2,8-diazaspiro[3.5]nonan-7-one]	≥ 500
CCN1CC2(CN(CCC(C)C)C2)OC2(CC2)C1=O [Example 6, 10-ethyl-7-isopentyl-4-oxa-7,10-diazadispiro[2.1.3.3]undecan-11-one]	< 100
CCN1CC2(CN(Cc3ccccc3)C2)OC2(CC2)C1=O [Example 13, 7-benzyl-10-ethyl-4-oxa-7,10-diazadispiro[2.1.3.3]undecan-11-one]	≥ 500
CCN1CC2(CCCN(CCc3ccccc3)C2)OC2(CC2)C1=O (stereo not shown) [Example 2, 12-Ethyl-7-phenethyl-4-oxa-7,12-diazadispiro[2.1.5.3]tridecan-13-one]	≥ 500
CC(C)CCN1CCCC2(C1)CN(c1ccccc1)CC1(CC1)O2 (stereo not shown) [Example 20, 7-isopentyl-12-phenyl-4-oxa-7,12-diazadispiro[2.1.5.3]tridecane]	< 100
CC(C)N1CC2(CN(CC(C)(C)C)C2)O[C@@H](C)C1=O [Example 76, (S)-8-isopropyl-6-methyl-2-neopentyl-5-oxa-2,8-diazaspiro[3.5]nonan-7-one]	≥ 500
c1ccc(CCN2CCCC3(CC2)CN(c2ccccc2)CC2(CC2)O3)cc1 (stereo not shown) [Example 22, 8-phenethyl-13-phenyl-4-oxa-8,13-diazadispiro[2.1.6.3]tetradecane]	< 100
CCN1CC(C)(C)OC2(CCCN(CCC(C)C)CC2)C1 (stereo not shown) [Example 88, 4-ethyl-9-isopentyl-2,2-dimethyl-1-oxa-4,9-diazaspiro[5.6]dodecane]	< 100
CCN1C[C@@]2(CCCN(Cc3ccc(C#N)cc3)CC2)O[C@H](C)C1=O [Example 67, 4-(((2R,6S)-4-ethyl-2-methyl-3-oxo-1-oxa-4,9-diazaspiro[5.6]dodecan-9-yl)methyl)benzonitrile]	≥ 500
O=C1N(c2ccccc2)CC2(CCCN(CCc3ccccc3)CC2)OC12CC2 (stereo not shown) [Example 9, 8-phenethyl-13-phenyl-4-oxa-8,13-diazadispiro[2.1.6.3]tetradecan-14-one]	< 100
O=C(c1ccccc1)N1CC2(CC2)OC2(CCCN(CCc3ccccc3)C2)C1 (stereo not shown) [Example 24, (7-phenethyl-4-oxa-7,12-diazadispiro[2.1.5.3]tridecan-12-yl)(phenyl)methanone]	≥ 500
CC(C)CN1CCCC2(CC1)CN(Cc1ccccc1)CC1(CC1)O2 (stereo not shown) [Example 85, 13-benzyl-8-isobutyl-4-oxa-8,13-diazadispiro[2.1.6.3]tetradecane]	< 100
c1ccc(CN2CCCC3(CC2)CN(c2ccccc2)CC2(CC2)O3)cc1 (stereo not shown) [Example 21, 8-benzyl-13-phenyl-4-oxa-8,13-diazadispiro[2.1.6.3]tetradecane]	< 100
O=C1N(c2ccccc2)CC2(CCCN(Cc3ccccc3)C2)OC12CC2 (stereo not shown) [Example 15, 7-benzyl-12-phenyl-4-oxa-7,12-diazadispiro[2.1.5.3]tridecan-13-one]	≥ 500
CCN1C[C@@]2(CCCN(CCC(C)C)CC2)O[C@H](C)C1=O [Example 46, (2R,6S)-4-ethyl-9-isopentyl-2-methyl-1-oxa-4,9-diazaspiro[5.6]dodecan-3-one]	≥ 500
CC(C)N1CC2(CN(CCC(C)(C)C)C2)O[C@H](C)C1=O [Example 45, (R)-2-(3,3-dimethylbutyl)-8-isopropyl-6-methyl-5-oxa-2,8-diazaspiro[3.5]nonan-7-one]	≥ 500
CCN1CC(C)(C)OC2(CCCN(CCc3ccccc3)CC2)C1 (stereo not shown) [Example 87, 4-ethyl-2,2-dimethyl-9-phenethyl-1-oxa-4,9-diazaspiro[5.6]dodecane]	< 100
CC(C)CCN1CCCC2(CC1)CN(Cc1ccccc1)CC1(CC1)O2 (stereo not shown) [Example 84, 13-benzyl-8-isopentyl-4-oxa-8,13-diazadispiro[2.1.6.3]tetradecane]	< 100
